# “Also recorded” adds a separate entry of the source. Read-outs that look alike come from different tables or passages of the source.
# Experiments:
# red blood cells (RBCs) [1] = assay type: cell-based
# Protocol: Supplementary file pone.0017732.s005.tif: Figure S5 A) Photohemolysis of RBCs with TMR-TAT. Short light exposure tat 560 nm to RBCs incubated with TMR-TAT (3 µM) causes lysis and formation of ghost cells as observed by bright field imaging. Lysis of more than 90% of the cells can be achieved when light exposure is increased. Initially, the ghosts formed appear to have a constant diameter as shown in the images corresponding to exposure at 20 J/cm^2 and 60 J/cm^2. As light exposure is increased, the ghosts shrink to a much smaller diameter (120 J/cm^2 image). This shrinkage was not observed when the ghosts formed by irradiation with 60 J/cm^2 of light were incubated without additional light irradiation (data not shown). […] The RBCs were then spun down at low speed and the supernatant was removed from the pelleted cells. Cells were rapidly washed with cold PBS (4°C) and spun down twice. Images are the bright field and TMR confocal fluorescence images before and after washing of the RBCs. During incubation, the interior of RBCs display a dark contrast when compared to the fluorescent peptide present in solution. After washing the cells, no appreciable TMR fluorescence could be detected. It is important to note that RBCs have a weak autofluorescence signal in the TMR channel. […]
# HeLa cells = assay: Photocytotoxicity of endocytosed peptide after light irradiation (SYTOX Blue staining, membrane blebbing); assay type: cell-based
# COLO 316 cells = assay: Photocytotoxicity of endocytosed peptide; assay type: cell-based, human; conditions: COLO 316, 3 µM for 1 h, washed, 560 nm
# Protocol: HeLa (human cervical adenocarcinoma), COS-7 (SV40 transformed African green monkey kidney fibroblast-like cell line) were obtained from ATCC. COLO 316 (human ovarian carcinoma) were obtained from Robert Burghardt (Department of Veterinary Integrative Biosciences, Texas A&M University). Cells were cultured in DMEM supplemented with 10% fetal bovine serum (FBS) and maintained at 37°C in a humidified environment with 5% CO2. Cells were plated in 8-well dishes so that the cells were 70% confluent after 24 h, washed 3 times with L-15 media, incubated with 3 to 10 µM peptides at 37°C for 1 h, washed 3 times with L-15, and imaged. Alternatively, cells were incubated in L-15 at 4°C to inhibit the endocytic uptake of peptides. In this case, cells were imaged with the peptide still present in solution and the low temperature was maintained for the entire duration of imaging. For photosensitization, cells were exposed to light (λex = 560±20 nm) for the indicated time points. Plasma membrane disruption was detected by addition of the cell-impermeable DNA stain SYTOX Blue (5 µM) during or after photosensitization.
# Figure 2 The photolytic and photocytotoxic effects of TMR-TAT occur rapidly and in all irradiated cells. […] The cells were washed with fresh media and endocytosis of TMR-TAT was confirmed by fluorescence microscopy. […]
# red blood cells (RBCs) [2] = test system: red blood cells (RBCs)
# Protocol: Whole blood was purchased from Gulf Coast Regional Blood Center (Houston, TX). Erythrocytes were centrifuged for 5 min at 1500 g and the erythrocyte pellet was resuspended with PBS. This was repeated three times to remove plasma and buffy coat. The erythrocytes (50% volume in PBS) were diluted in PBS to a final concentration of 0.25%. Indicated concentration of peptide was added to the medium and the samples were added to the wells of an 8-well chamber glass slide (Nunc). Cells were typically allowed to settle to the bottom of the dish for 5 minutes prior to imaging so as to obtain a layer of cells in the focal plane.
# Cells were placed on an inverted epifluorescence microscope (Model IX81, Olympus, Center Valley, PA) equipped with a heating stage maintained at 37°C. The microscope is configured with a spinning disk unit to perform both confocal and wide-field fluorescence microscopy. Images were collected using a Rolera-MGI Plus back-illuminated EMCCD camera (Qimaging, Surrey, BC, Canada). Images were acquired using bright field imaging and two standard fluorescence filter sets: Texas Red (Ex = 560±20 nm/Em = 630±35 nm), and CFP (Ex = 436±10 nm/Em = 480±20 nm). The excitation light was from a 100 W halogen lamp (Olympus USH 1030C) passed through the filter cubes and 40 or 100× objective lenses. Neutral density filters (ND 1, 2, 3, or 4 on the instrument, corresponding to 100, 25, 12.5, or 5% transmittance) and different exposure times were used to modulate the amount of light samples were exposed to. The bright field and fluorescence intensities of cells and ghosts were measured using the SlideBook 4.2 software (Olympus, Center Valley, PA). To determine the percentage of cells stained by SYTOX® Blue, cells were imaged with a 20× objective by phase contrast. Ten to twenty images were acquired for each experiment. The total number of cells in a given image was determined from the phase contrast image while the number of dead cells was determined by identifying cells containing a blue fluorescent nucleus stained by SYTOX® Blue. Cell viability was determined by establishing a ratio of dead cells/total number of cells for each sample (at least 1000 cells were counted in each experiments and each experiments were repeated 3 times).
# TMR and TMR containing peptides were used at 2 µM. All experiments were performed by irradiating the samples at 560 nm for 400 msec (∼8 J/cm^2). The data in the histogram represents the average of 4 experiments and the error bars correspond to the standard deviation.
compound,measurement,setting,value
CN(C)c1ccc2c(c1)Oc1cc(N(C)C)ccc1C21OC(=O)c2cc(C(=O)NCC(=O)N[C@@H](CCCNC(=N)N)C(=O)N[C@@H](CCCCN)C(=O)N[C@@H](CCCCN)C(=O)N[C@@H](CCCNC(=N)N)C(=O)N[C@@H](CCCNC(=N)N)C(=O)N[C@@H](CCC(N)=O)C(=O)N[C@@H](CCCNC(=N)N)C(=O)N[C@@H](CCCNC(=N)N)C(=O)N[C@@H](CCCNC(=N)N)C(=O)NCC(N)=O)ccc21 [TMR-TAT],penetration into RBCs,"red blood cells (RBCs) [1]; 10 µM in PBS for 1 hour, washed with cold PBS, confocal fluorescence",does not penetrate RBCs to a large extent
same,penetration into RBCs,red blood cells (RBCs) [1]; 1 to 5 µM,do not penetrate RBCs
same,cell destruction after irradiation at 430 nm,"HeLa cells; HeLa incubated with TMR-TAT, 430 nm (not absorbed by TMR), radiant exposure approx. 40 J/cm^2",not destroyed
same,cell death on exposure to light of wavelengths not absorbed by TMR,"HeLa cells; HeLa, e.g. 436 or 470 nm",no cell death
same,"photo-induced activities (morphological changes, SYTOX Blue staining)",COLO 316 cells,only observable in the irradiated area; also recorded: could be reproduced
same,lysis of RBCs when light exposure is increased,"red blood cells (RBCs) [2]; 3 µM, 560 nm",more than 90%
same,lysis of RBCs in the absence of irradiation,"red blood cells (RBCs) [2]; RBCs 0.25% in PBS, 1 to 5 µM, no 560 nm light",No lysis
same,photohemolysis (lytic effect on RBCs upon light exposure),"red blood cells (RBCs) [2]; RBCs 0.25% in PBS, irradiation at 560 nm",started lysing immediately upon excitation with light
same,photohemolysis after removal of oxygen,red blood cells (RBCs) [2]; incubation media degassed with nitrogen,greatly reduced
